pIC50: −log10 of the molar value. Counter-ions that a name gives are not always drawn.

One assay has as its target c-Cbl (Homo sapiens (Human), UniProt P22681). Nature of the assay: C-Cbl LCK Ub TR-FRET assay (c-cbl Lck HTRF). Format: biochemical. The following applies: for (fold-selectivity): C-cbl Lck HTRF IC50 relative to Cbl-b Lck HTRF IC50. The procedure, abridged: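 After the ubiquitination reaction, detection mixture was added and plates incubated 20 min at room temperature before reading. IC50 values were calculated with wells lacking LCK as the low control and DMSO as the high control.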

Another assay addresses Cbl-b (Homo sapiens (Human), UniProt Q13191). Description: Cbl-b LCK Ub TR-FRET assay (Cbl-b Lck HTRF). Format: biochemical. The procedure, abridged:
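TR-FRET (340 nm excitation, 615/665 nm emission) read after adding HA-ubiquitin–UBE2D2 thioester, anti-HA-D2 and streptavidin-Eu. Beforehand, compounds incubated 60 min with biotinylated Cbl-b, then 90 min with His-LCK and ATP (1 mM in 2× mix); IC50 from 10 concentrations, DMSO high and no-LCK low controls.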
In general terms: In TR-FRET formats the signal depends on donor and acceptor labels being close together.

Chain of c-Cbl (P22681 47-435): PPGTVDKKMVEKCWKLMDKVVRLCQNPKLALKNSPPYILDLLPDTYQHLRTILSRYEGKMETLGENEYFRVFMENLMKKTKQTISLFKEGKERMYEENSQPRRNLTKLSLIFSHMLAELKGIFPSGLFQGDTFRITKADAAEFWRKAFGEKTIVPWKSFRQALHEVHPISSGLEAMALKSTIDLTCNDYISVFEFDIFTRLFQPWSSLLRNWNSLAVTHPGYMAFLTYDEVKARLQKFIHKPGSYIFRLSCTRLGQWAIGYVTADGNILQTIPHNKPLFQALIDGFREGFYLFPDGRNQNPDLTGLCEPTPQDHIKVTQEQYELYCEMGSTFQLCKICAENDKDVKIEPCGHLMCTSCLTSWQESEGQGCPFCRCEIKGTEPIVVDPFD
Chain of Cbl-b (Q13191 40-426): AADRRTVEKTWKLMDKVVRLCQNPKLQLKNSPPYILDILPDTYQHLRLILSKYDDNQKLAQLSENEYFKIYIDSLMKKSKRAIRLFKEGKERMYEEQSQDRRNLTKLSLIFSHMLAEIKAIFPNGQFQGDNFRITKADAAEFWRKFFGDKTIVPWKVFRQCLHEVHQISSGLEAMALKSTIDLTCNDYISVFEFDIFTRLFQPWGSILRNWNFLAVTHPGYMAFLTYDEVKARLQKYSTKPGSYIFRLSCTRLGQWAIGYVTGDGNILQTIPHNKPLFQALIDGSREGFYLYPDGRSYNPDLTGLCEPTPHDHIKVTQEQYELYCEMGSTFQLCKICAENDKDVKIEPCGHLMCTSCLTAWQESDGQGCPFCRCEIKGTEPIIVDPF

One may read the pIC50 as the negative decadic logarithm of the IC50, by convention in mol/L. Read a low pIC50 as a high IC50. As for `Cn1cnnc1[C@H](F)C1(c2cccc(N3Cc4c(cc(CN5CCC56COC6)cc4C(F)(F)F)C3=O)c2)COC1` [Compound 175, (R)-6-(6-oxa-1-azaspiro[3.3]heptan-1-ylmethyl)-2-(3-(3-(fluoro(4-methyl-4H-1,2,4-triazol-3-yl)methyl)oxetan-3-yl)phenyl)-4-(trifluoromethyl)isoindolin-1-one], on c-Cbl, the pIC50 was 6.46 and the “(fold-selectivity)” value came out at 2.5x. On Cbl-b, this compound had a pIC50 of 6.82.

For `COC(C)(C)CNCc1cc2c(c(C(F)(F)F)c1)CN(c1cccc(C3(Cc4nncn4C)CC(F)(F)C3)c1)C2=O` [Compound 373, 2-(3-(3,3-difluoro-1-((4-methy-4H-1,2,4-triazol-3-yl)methyl)cyclobutyl)phenyl)-6-(((2-methoxy-2-methylpropyl)amino)methyl)-4-(trifluoromethyl)isoindolin-1-one], at c-Cbl, the pIC50 is 7.60 and the “(fold-selectivity)” value is given as “(1.3x)”. The same compound gave a pIC50 at Cbl-b of 7.70.

Turning to `Cn1cnnc1[C@H](F)C1(c2cccc(N3Cc4c(cc(CN5CCCC5)cc4C(F)(F)F)C3=O)c2)CC(F)(F)C1` [Compound 395, (R)-2-(3-(3,3-difluoro-1-(fluoro(4-methyl-4H-1,2,4-triazol-3-yl)methyl)cyclobutyl)phenyl)-6-(pyrrolidin-1-ylmethyl)-4-(trifluoromethyl)isoindolin-1-one], at c-Cbl, the pIC50 is 6.96 and the “(fold-selectivity)” value is listed as “(1.0x)”. On Cbl-b, this compound gave a pIC50 of 6.96.

Take `CO[C@@H]1CCN(Cc2cc3c(c(C(F)(F)F)c2)CN(c2cccc(C4([C@@H](F)c5nncn5C)COC4)c2)C3=O)C1` [Compound 47, 2-(3-(3-((R)-fluoro(4-methyl-4H-1,2,4-triazol-3-yl)methyl)oxetan-3-yl)phenyl)-6-(((R)-3-methoxypyrrolidin-1-yl)methyl)-4-(trifluoromethyl)isoindolin-1-one]: the pIC50 is 6.74 against c-Cbl and 7.00 at Cbl-b. Further, the “(fold-selectivity)” value on c-Cbl was 1.8x.

For the compound `Cn1cnnc1[C@H](F)C1(c2cccc(N3Cc4c(cc([C@@H](N)C5CCC5)cc4C(F)(F)F)C3=O)c2)COC1` [Compound 391, 6-((S)-amino(cyclobutyl)methyl)-2-(3-(3-((R)-fluoro(4-methyl-4H-1,2,4-triazol-3-yl)methyl)oxetan-3-yl)phenyl)-4-(trifluoromethyl)isoindolin-1-one], the negative logarithm of the IC50 (pIC50) against c-Cbl was 7.20; against Cbl-b, 7.48. Moreover, the “(fold-selectivity)” value at c-Cbl is reported as “(1.9x)”.

Turning to `Cn1cnnc1CC1(c2cccc(N3Cc4c(cc(C5CCN5)cc4C(F)(F)F)C3=O)c2)COC1` (stereo not shown) [Compound 13, 6-(azetidin-2-yl)-2-(3-(3-((4-methyl-4H-1,2,4-triazol-3-yl)methyl)oxetan-3-yl)phenyl)-4-(trifluoromethyl)isoindolin-1-one formate], the pIC50 is 6.27 at c-Cbl and 6.49 against Cbl-b.

Turning to `CC(C)[C@@H]1CN(Cc2cc3c(c(C(F)(F)F)c2)CN(c2cccc(C4(Cc5nncn5C)CC(F)(F)C4)c2)C3=O)CCN1` [Compound 428, (R)-2-(3-(3,3-difluoro-1-((4-methyl-4H-1,2,4-triazol-3-yl)methyl)cyclobutyl)phenyl)-6-((3-isopropylpiperazin-1-yl)methyl)-4-(trifluoromethyl)isoindolin-1-one], the pIC50 against c-Cbl is 8.00; against Cbl-b, 7.85. The “(fold-selectivity)” value on c-Cbl is given as “(0.74x)”.

As for `Cn1cnnc1[C@@H](F)[C@](C)(F)c1cccc(N2Cc3c(cc(CN4CC(C)(F)C4)cc3C(F)(F)F)C2=O)c1` [Compound 34], the pIC50 on c-Cbl is 6.12; at Cbl-b, 6.42. In addition, at c-Cbl, the “(fold-selectivity)” value is reported as 2.0x.

With `CC(=O)N1CCN(Cc2cc3c(c(C(F)(F)F)c2)CN(c2cccc(C4([C@@H](F)c5nncn5C)COC4)c2)C3=O)[C@@H](C(C)C)C1` [Compound 193, 6-(((S)-4-acetyl-2-isopropylpiperazin-1-yl)methyl)-2-(3-(3-((R)-fluoro(4-methyl-4H-1,2,4-triazol-3-yl)methyl)oxetan-3-yl)phenyl)-4-(trifluoromethyl)isoindolin-1-one], on c-Cbl, the negative-log IC50 (pIC50) is 6.72 and the “(fold-selectivity)” value is 2.6x. Besides, on Cbl-b, the pIC50 is 7.14.

Regarding `Cn1cnnc1CC1(c2cccc(N3Cc4c(cc(CNCC5CC5)cc4C(F)(F)F)C3=O)c2)CC(F)(F)C1` [Compound 334, 6-(((cyclopropylmethyl)amino)methyl)-2-(3-(3,3-difluoro-1-((4-methyl-4H-1,2,4-triazol-3-yl)methyl)cyclobutyl)phenyl)-4-(trifluoromethyl)isoindolin-1-one], at c-Cbl, the pIC50 was 8.09 and the “(fold-selectivity)” value is “(0.72) x”. This compound also showed a pIC50 against Cbl-b of 7.96.

As to `Cn1cnnc1CC1(c2cccc(N3Cc4c(cc(CN5CC[C@@H](CCl)C5)cc4C(F)(F)F)C3=O)c2)COC1` [Compound 101, (R)-6-((3-(chloromethyl)pyrrolidin-1-yl)methyl)-2-(3-(3-((4-methyl-4H-1,2,4-triazol-3-yl)methyl)oxetan-3-yl)phenyl)-4-(trifluoromethyl)isoindolin-1-one], the figures for the pIC50 against c-Cbl and on Cbl-b were 7.64 and 7.74, respectively. In addition, the “(fold-selectivity)” value at c-Cbl is 1.2x.

For `CC(C)[C@H]1CNCCN1Cc1cc2c(c(C(F)(F)F)c1)CN(c1cccc(C3(Cc4nncn4C)CC(F)(F)C3)c1)C2=O` [Compound 219, (S)-2-(3-(3,3-difluoro-1-((4-methyl-4H-1,2,4-triazol-3-yl)methyl)cyclobutyl)phenyl)-6-((2-isopropylpiperazin-1-yl)methyl)-4-(trifluoromethyl)isoindolin-1-one], the pIC50 against c-Cbl was 7.08; against Cbl-b, 7.12. For the same compound, on c-Cbl, the “(fold-selectivity)” value was 1.1x.

For `Cn1cnnc1[C@H](F)C1(c2cccc(N3Cc4c(cc(CN5CCC(F)(CO)CC5)cc4C(F)(F)F)C3=O)c2)COC1` [Compound 133, (R)-2-(3-(3-(fluoro(4-methyl-4H-1,2,4-triazol-3-yl)methyl)oxetan-3-yl)phenyl)-6-((4-fluoro-4-(hydroxymethyl)piperidin-1-yl)methyl)-4-(trifluoromethyl)isoindolin-1-one], on c-Cbl, the pIC50 was 6.77 and the “(fold-selectivity)” value is given as 1.9x. At Cbl-b, this compound had a pIC50 of 7.05.

In the case of `CC(C)[C@H]1CN(S(C)(=O)=O)CCN1Cc1cc2c(c(C(F)(F)F)c1)CN(c1cccc(C3([C@@H](F)c4nncn4C)COC3)c1)C2=O` [Compound 195, 2-(3-(3-((R)-fluoro(4-methyl-4H-1,2,4-triazol-3-yl)methyl)oxetan-3-yl)phenyl)-6-(((S)-2-isopropyl-4-(methylsulfonyl)piperazin-1-yl)methyl)-4-(trifluoromethyl)isoindolin-1-one], on c-Cbl, the pIC50 is 6.96 and the “(fold-selectivity)” value is 2.0x. This compound showed a pIC50 against Cbl-b of 7.28.

`Cn1cnnc1CC1(c2cc(OC3CCCC3)nc(N3Cc4c(cccc4C(F)(F)F)C3=O)c2)COC1` [Compound 381, 2-(6-(cyclopentyloxy)-4-(3-((4-methyl-4H-1,2,4-triazol-3-yl)methyl)oxetan-3-yl)pyridin-2-yl)-4-(trifluoromethyl)isoindolin-1-one]: at c-Cbl, the pIC50 is 5.14 and the “(fold-selectivity)” value is listed as “(5.9x)”. At Cbl-b, this compound had a pIC50 of 5.96.

For the compound `CC(NCc1cc2c(c(C(F)(F)F)c1)CN(c1cccc(C3(Cc4nncn4C)CC(F)(F)C3)c1)C2=O)C1CC1` (stereo not shown) [Compound 319, 6-(((1-cyclopropylethyl)amino)methyl)-2-(3-(3,3-difluoro-1-((4-methyl-4H-1,2,4-triazol-3-yl)methyl)cyclobutyl)phenyl)-4-(trifluoromethyl)isoindolin-1-one formate], the pIC50 against c-Cbl is 7.80; against Cbl-b, 7.85.

As to `CN(C)Cc1cccc(CNc2cc(C3(Cc4nncn4C)CCC3)cc(N3Cc4c(cc(CNC5(C)CCC5)cc4C(F)(F)F)C3=O)n2)c1` [Compound 318, 2-(6-((3-((dimethylamino)methyl)benzyl)amino)-4-(1-((4-methyl-4H-1,2,4-triazol-3-yl)methyl)cyclobutyl)pyridin-2-yl)-6-(((1-methylcyclobutyl)amino)methyl)-4-(trifluoromethyl)isoindolin-1-one], at c-Cbl, the pIC50 is 6.85 and the “(fold-selectivity)” value is “(1.1x)”. The pIC50 at Cbl-b is 6.89.

For `Cn1cnnc1CC1(c2cc(NCC3CCS(=O)(=O)CC3)nc(N3Cc4c(cc(CNC5(C)CCC5)cc4C(F)(F)F)C3=O)c2)CCC1` [Compound 315, 2-(6-(((1,1-dioxidotetrahydro-2H-thiopyran-4-yl)methyl)amino)-4-(1-((4-methyl-4H-1,2,4-triazol-3-yl)methyl)cyclobutyl)pyridin-2-yl)-6-(((1-methylcyclobutyl)amino)methyl)-4-(trifluoromethyl)isoindolin-1-one], at c-Cbl, the pIC50 was 6.32 and the “(fold-selectivity)” value was “(0.84x)”. Also, the pIC50 on Cbl-b is 6.24.

On to `Cn1cnnc1[C@H](F)C1(c2cccc(N3Cc4c(cc(CN5CC(C)(CCl)C5)cc4C(F)(F)F)C3=O)c2)COC1` [Compound 103, (R)-6-((3-(chloromethyl)-3-methylazetidin-1-yl)methyl)-2-(3-(3-(fluoro(4-methyl-4H-1,2,4-triazol-3-yl)methyl)oxetan-3-yl)phenyl)-4-(trifluoromethyl)isoindolin-1-one], for which, at c-Cbl, the pIC50 is 7.66 and the “(fold-selectivity)” value was 1.5x. Besides, on Cbl-b, the pIC50 is 7.82.

Consider `Cn1cnnc1CC1(c2cc(NC3CCC(F)(F)C3)nc(N3Cc4c(cccc4C(F)(F)F)C3=O)c2)COC1` (stereo not shown) [Compound 483, 2-(6-((3,3-difluorocyclopentyl)amino)-4-(3-((4-methyl-4H-1,2,4-triazol-3-yl)methyl)oxetan-3-yl)pyridin-2-yl)-4-(trifluoromethyl)isoindolin-1-one], for which the pIC50 against c-Cbl is 4.70; against Cbl-b, 5.74. Moreover, the “(fold-selectivity)” value at c-Cbl is “(12x)”.
